# Measured values reported in US20150284349A1 (priority 2013, published 2015).
# pIC50: −log10 of the molar value. Where two headings read alike, the source gives them in different places.
# What was measured:
# [1] = Oral pharmacokinetic study, bioavailability; type: in vivo; conditions: rat, plasma, 5 mg/kg b.w., Male SD rats
# Description: Fasted animals (Male and Female BALB/c mice or SD rats, ten groups, three animals per group) were administered with compound 1 in vehicle (5% (v/v) N,N-Dimethylacetamide, 50% (v/v) of 60% (w/v) Sulfobutyl ether beta-cyclodextrin (SBEβCD) and 45% (v/v) Sterile water for injection) by oral route with a dose of 2.5, 5, and 10 mg/kg body weight at dose volume of 10 mL/kg b.w. Under mild isoflurane anesthesia, blood specimen were collected into pre-labeled tubes containing anticoagulant (K2EDTA—2 mg/mL blood) at various time points (0.08, 0.16, 0.25, 0.50, 1.00, 2.00, 4.00, 6.00, 8.00 and 24.00 hours). Collected blood specimens were centrifuged at 4000 rpm, 4° C. for 10 minutes and plasma was separated and stored at −80° C. until analysis.
# [2] = test system: 786-O xenografts (renal cell carcinoma); experiment: Mouse xenograft study, 786-O renal cell carcinoma; type: in vivo, mice
# Description: Mouse xenograft study was conducted to evaluate the primary endpoint of efficacy (reduction in tumor volume of >50% as compared to control) and the secondary endpoint of survival (Kaplan-Meier). Tumors were established in the flank region and grown to about 100 mm^3 The mice were treated with compound 1 in the 786-O xenografts (renal cell carcinoma) at 1 mg/kg given IV. The compound was injected every fourth day for 45 days (a total of 11 injections, see following table).
# All tumors were imaged at the end of the study and harvested for histopathology studies. Percentages of tumor volumes in control and compound 1—treated mice measured throughout the entire duration of the experiments. Error bars are ±SEM of each experimental group.
# After the last treatment with compound 1, mice were injected with the tumor-targeting near-infrared (NIR) contrast agent IR-783, anesthetized and imaged on a Xenogen IVIS 200 small animal imager. The fluorescence output was processed with Living Image software with one representative sample for each group presented above.
# [3] = Human microsome stability; type: in vitro ADME
# [4] = Plasma protein binding; type: in vitro ADME
# [5] = Intravenous pharmacokinetic study, observation for adverse symptoms; type: in vivo, male and female BALB/c mice; conditions: intravenous 1.0 mg/kg b.w., observed up to 24 hours post dose
# Description: Non-fasted animals (Male and Female BALB/c mice or SD rats, ten groups, three animals per group) were administered with compound 1 in vehicle (5% (v/v) N,N-Dimethylacetamide, 50% (v/v) of 60% (w/v) Hydroxypropyl beta-Cyclodextrin, 45% (v/v) Sterile water for injection) by intravenous route with various doses 0.5, 1, 2.5, and 5 mg/kg body weight at dose volume of 10 mL/kg body weight. Under mild isoflurane anesthesia, blood specimens were collected into pre-labeled tubes containing anticoagulant (K2EDTA—2 mg/mL blood) at various time points (0.08, 0.16, 0.25, 0.50, 1.00, 2.00, 4.00, 6.00, 8.00 and 24.00 hours). Collected blood specimens were centrifuged at 4000 rpm, 4° C. for 10 minutes and plasma was separated and stored at −80° C. until analysis.
# [6] = test system: multiple CYP; experiment: Standard CYP inhibition assays; type: in vitro ADME; conditions: each assay
# Description: (§1) The Log D7.4 value of compound 1 was measured to be 2.69 under standard experimental conditions. Inhibition of multiple CYP was measured for compound 1 using standard CYP inhibition assays.
# [7] = Maximum tolerated dose study; type: in vivo, male BALB/c mice; conditions: for MTD at 14 days: male, BALB/c, mouse, in vivo
# Description: Three groups of three animals (male BALB/c mice) were administered increasing doses of compound 1 every other day for 14 days and the animals checked daily for the signs of moribundity, mortality, vocalization, and gross weight or body shape abnormalities. Dose escalation of compound 1 was performed according to the “modified Fibonacci search” scheme, compound 1 (x=2 mg/kg) was dosed at 4, 6.6, 10, 14, 24 and 32 mg/kg on Days 0, 2, 4, 6, 8 and 10. […] An average MTD of 21.1 mg/kg for the three groups combined was determined from this study.
# [8] = Log D7.4 measurement; type: physicochemical; conditions: pH 7.4; standard experimental conditions
# Description: as §1
# [9] = test system: HIF1a; conditions: cited from earlier work
# [10] = molecular target: HIF/p300 complex (Homo sapiens, UniProt Q09472); conditions: cited from earlier work
# HIF/p300 complex, sequence (Q09472 whole entry, one chain of several): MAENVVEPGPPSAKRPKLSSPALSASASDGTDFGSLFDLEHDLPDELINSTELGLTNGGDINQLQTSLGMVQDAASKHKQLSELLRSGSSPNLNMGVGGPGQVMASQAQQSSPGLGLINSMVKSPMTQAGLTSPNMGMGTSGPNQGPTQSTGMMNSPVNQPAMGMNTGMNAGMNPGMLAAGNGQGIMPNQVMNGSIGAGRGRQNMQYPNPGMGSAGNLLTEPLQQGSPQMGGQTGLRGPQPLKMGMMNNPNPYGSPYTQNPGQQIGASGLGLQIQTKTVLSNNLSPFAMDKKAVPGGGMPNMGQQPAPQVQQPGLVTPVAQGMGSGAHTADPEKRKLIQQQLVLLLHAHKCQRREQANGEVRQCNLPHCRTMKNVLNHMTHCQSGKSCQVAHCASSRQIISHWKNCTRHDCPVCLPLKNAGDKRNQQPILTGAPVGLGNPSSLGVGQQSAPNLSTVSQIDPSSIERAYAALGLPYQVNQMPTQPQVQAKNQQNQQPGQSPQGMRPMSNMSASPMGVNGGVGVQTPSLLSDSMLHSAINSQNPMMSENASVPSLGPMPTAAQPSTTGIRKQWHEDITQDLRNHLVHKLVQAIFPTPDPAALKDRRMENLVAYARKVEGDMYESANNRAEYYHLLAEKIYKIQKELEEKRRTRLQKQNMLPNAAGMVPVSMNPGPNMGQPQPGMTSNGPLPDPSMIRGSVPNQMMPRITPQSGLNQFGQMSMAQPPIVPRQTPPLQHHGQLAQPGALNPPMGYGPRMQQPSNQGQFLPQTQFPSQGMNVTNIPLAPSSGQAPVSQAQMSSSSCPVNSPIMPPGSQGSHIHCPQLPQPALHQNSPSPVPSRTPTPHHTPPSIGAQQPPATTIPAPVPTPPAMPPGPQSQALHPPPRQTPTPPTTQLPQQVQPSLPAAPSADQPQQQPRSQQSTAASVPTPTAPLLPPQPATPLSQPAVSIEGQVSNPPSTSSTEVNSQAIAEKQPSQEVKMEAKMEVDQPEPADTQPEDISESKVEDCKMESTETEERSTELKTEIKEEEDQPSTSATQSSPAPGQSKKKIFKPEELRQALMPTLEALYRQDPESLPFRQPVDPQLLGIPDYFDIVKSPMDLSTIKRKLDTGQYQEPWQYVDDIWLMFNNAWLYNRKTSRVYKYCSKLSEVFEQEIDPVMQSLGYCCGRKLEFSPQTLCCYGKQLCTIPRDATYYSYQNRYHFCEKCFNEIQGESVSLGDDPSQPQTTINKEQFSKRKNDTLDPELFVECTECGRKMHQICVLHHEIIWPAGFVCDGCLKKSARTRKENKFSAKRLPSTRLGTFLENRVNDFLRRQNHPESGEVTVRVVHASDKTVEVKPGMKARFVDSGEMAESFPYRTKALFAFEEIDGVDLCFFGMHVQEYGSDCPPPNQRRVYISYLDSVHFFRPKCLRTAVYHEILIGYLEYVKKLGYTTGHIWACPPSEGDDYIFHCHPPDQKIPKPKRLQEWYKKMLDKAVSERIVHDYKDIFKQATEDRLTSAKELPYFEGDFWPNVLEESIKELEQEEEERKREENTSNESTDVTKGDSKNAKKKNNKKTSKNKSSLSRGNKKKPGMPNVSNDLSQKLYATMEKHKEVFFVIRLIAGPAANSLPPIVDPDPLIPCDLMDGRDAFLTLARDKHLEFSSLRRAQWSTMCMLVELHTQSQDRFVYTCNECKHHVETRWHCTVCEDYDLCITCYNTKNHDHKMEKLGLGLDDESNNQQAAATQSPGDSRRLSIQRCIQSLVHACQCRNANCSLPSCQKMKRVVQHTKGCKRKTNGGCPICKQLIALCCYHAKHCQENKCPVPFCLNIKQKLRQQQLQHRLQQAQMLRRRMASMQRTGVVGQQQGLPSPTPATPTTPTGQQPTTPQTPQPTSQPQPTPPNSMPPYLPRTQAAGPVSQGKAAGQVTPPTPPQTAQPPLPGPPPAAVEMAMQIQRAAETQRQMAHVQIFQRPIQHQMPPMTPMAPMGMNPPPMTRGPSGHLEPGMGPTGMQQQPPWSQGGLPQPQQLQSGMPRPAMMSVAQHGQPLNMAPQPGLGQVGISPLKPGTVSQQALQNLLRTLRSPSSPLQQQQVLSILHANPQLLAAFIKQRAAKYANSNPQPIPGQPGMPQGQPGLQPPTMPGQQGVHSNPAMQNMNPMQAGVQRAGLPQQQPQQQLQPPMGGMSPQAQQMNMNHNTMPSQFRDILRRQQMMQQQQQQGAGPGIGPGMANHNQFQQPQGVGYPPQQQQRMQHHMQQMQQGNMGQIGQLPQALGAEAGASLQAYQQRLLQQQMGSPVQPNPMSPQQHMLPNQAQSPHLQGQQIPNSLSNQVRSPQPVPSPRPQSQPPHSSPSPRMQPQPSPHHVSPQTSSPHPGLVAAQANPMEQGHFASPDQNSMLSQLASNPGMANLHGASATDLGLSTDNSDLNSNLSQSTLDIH
smiles,measurement,setting,value
"CN1C(=O)[C@]2(Cc3ccc(CCc4ccc(C[C@@]56SS[C@@](CO)(C(=O)N5C)N(C)C6=O)cc4)cc3)SS[C@@]1(CO)C(=O)N2C (racemic) [Compound 1, (±)-4,4′-((ethane-1,2-diylbis(4,1-phenylene))bis(methylene))bis(1-(hydroxymethyl)-5,7-dimethyl-2,3-dithia-5,7-diazabicyclo[2.2.2]octane-6,8-dione)]",bioavailability,[1],28%
same,median tumor volume increase,"[2]; 786-O xenografts in mice, 46 day experiment, control group 288%, P<0.01",113%
same,intensity of the NIR signal from tumor-accumulated contrast agent IR-783 compared to control group,"[2]; after last treatment, Xenogen IVIS 200 imaging",significantly lower intensity
same,weight loss,[2]; during the 45 day experiment,5-8%
same,"in vitro clearance, human microsome stability studies",[3],favorable in vitro clearance
same,human microsome stability T1/2,[3]; in the presence of co-factor,short
same,plasma protein binding,[4],highly protein bound
same,adverse symptoms after dosing,[5],found to be normal
same,pIC50,[6],< 5.30
same,signs of toxicity,"[7]; 14 mg/kg dose, male BALB/c mice",no signs of toxicity
same,signs of toxicity,"[7]; 24 mg/kg dose, male BALB/c mice",one animal exhibited signs of toxicity
same,animals affected per group of three (quantity not given),"[7]; Dose 4 mg/kg, Group 1",0
same,animals affected per group of three (quantity not given),"[7]; Dose 4 mg/kg, Group 2",0
same,animals affected per group of three (quantity not given),"[7]; Dose 4 mg/kg, Group 3",0
same,animals affected per group of three (quantity not given),"[7]; Dose 6.6 mg/kg, Group 1",0
same,animals affected per group of three (quantity not given),"[7]; Dose 6.6 mg/kg, Group 2",0
same,animals affected per group of three (quantity not given),"[7]; Dose 6.6 mg/kg, Group 3",0
same,animals affected per group of three (quantity not given),"[7]; Dose 10 mg/kg, Group 1",0
same,animals affected per group of three (quantity not given),"[7]; Dose 10 mg/kg, Group 2",0
same,animals affected per group of three (quantity not given),"[7]; Dose 10 mg/kg, Group 3",0
same,animals affected per group of three (quantity not given),"[7]; Dose 14 mg/kg, Group 1",0
same,animals affected per group of three (quantity not given),"[7]; Dose 14 mg/kg, Group 2",0
same,animals affected per group of three (quantity not given),"[7]; Dose 14 mg/kg, Group 3",0
same,animals affected per group of three (quantity not given),"[7]; Dose 24 mg/kg, Group 1",0
same,animals affected per group of three (quantity not given),"[7]; Dose 24 mg/kg, Group 2",1
same,animals affected per group of three (quantity not given),"[7]; Dose 24 mg/kg, Group 3",1
same,animals affected per group of three (quantity not given),"[7]; Dose 32 mg/kg, Group 1",3
same,animals affected per group of three (quantity not given),"[7]; Dose 32 mg/kg, Group 2",3
same,animals affected per group of three (quantity not given),"[7]; Dose 32 mg/kg, Group 3",3
same,MTD at 14 days,"[7]; Group 1, read-out: MTD",25.3 mg/kg
same,MTD at 14 days,"[7]; Group 2, read-out: MTD",19 mg/kg
same,MTD at 14 days,"[7]; Group 3, read-out: MTD",19 mg/kg
same,MTD at 14 days,"[7]; three groups combined, male BALB/c mice, read-out: Average MTD",21.1 mg/kg
same,logD,[8],2.69
COc1cc2c(cc1O)CC[C@@H]1[C@@H]2CC[C@]2(C)[C@@H](O)CC[C@@H]12 [2-methoxyestradiol],HIF1a levels in vitro,[9],reduce HIFIa levels
CN1C(=O)[C@]2(Cc3cn([C@]45C[C@@]67SS[C@@](CO)(C(=O)N6[C@H]4Nc4ccccc45)N(C)C7=O)c4ccccc34)SS[C@@]1(CO)C(=O)N2C [chetomin],inhibition of the HIF/p300 complex,[10],potent and specific inhibition
